In ChEMBL document CHEMBL1201862, “PubChem BioAssay data set” (2004):
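Compound exposure: 48 hours, 5 concentrations, 96-well plates. GI50 is the concentration that inhibits growth by half.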 Active and inactive are the calls of the source. No stated cut-off is given here; in the data, active = GI50 up to about 1.1 µM and inactive = higher.

How the values were obtained:
Experiment in all cases: NCI tumour cell line growth inhibition, 48 h
[1] = tested on: 786-0
[2] = tested on: A498
[3] = tested on: A549
[4] = tested on: ACHN
[5] = tested on: CAKI-1
[6] = tested on: CCRF-CEM
[7] = tested on: COLO 205
[8] = tested on: DLD-1
[9] = tested on: DMS-114
[10] = tested on: DMS-273
[11] = tested on: EKVX
[12] = tested on: HCC 2998
[13] = tested on: HCT-116
[14] = tested on: HCT-15
[15] = tested on: HL-60
[16] = tested on: HOP-18
[17] = tested on: HOP-62
[18] = tested on: HOP-92
[19] = tested on: HT-29
[20] = tested on: IGROV-1
[21] = tested on: K562
[22] = tested on: KM-20L2
[23] = tested on: KM12
[24] = tested on: LOX IMVI
[25] = tested on: LXFL 529
[26] = tested on: M14
[27] = tested on: M19-MEL
[28] = tested on: MOLT-4
[29] = tested on: Malme-3M
[30] = tested on: NCI-H226
[31] = tested on: NCI-H23
[32] = tested on: NCI-H460
[33] = tested on: NCI-H522
[34] = tested on: OVCAR-3
[35] = tested on: OVCAR-4
[36] = tested on: OVCAR-5
[37] = tested on: OVCAR-8
[38] = tested on: RPMI-8226
[39] = tested on: RXF 393
[40] = tested on: RXF 631
[41] = tested on: SF-268
[42] = tested on: SF-295
[43] = tested on: SF-539
[44] = tested on: SK-MEL-28
[45] = tested on: SK-MEL-2
[46] = tested on: SK-MEL-5
[47] = tested on: SK-OV-3
[48] = tested on: SN12C
[49] = tested on: SNB-19
[50] = tested on: SNB-75
[51] = tested on: SNB-78
[52] = tested on: SR
[53] = tested on: SW-620
[54] = tested on: TK-10
[55] = tested on: U-251
[56] = tested on: UACC-257
[57] = tested on: UACC-62
[58] = tested on: UO-31
[59] = tested on: XF498

In the case of CC1=C(C(=O)Nc2ccccc2C)C(c2ccc(Cl)c(Cl)c2)C(C(=O)Nc2ccccc2C)=C(C)N1, the GI50 [1] is reported as 24.7 µM (inactive), the GI50 [2] is reported as 27.5 µM (inactive) and the GI50 [3] is reported as 24.2 µM (inactive). The GI50 [4] was 27.3 µM (inactive), the GI50 [5] was 26.7 µM (inactive) and the GI50 [6] was 22.7 µM (inactive). For the same molecule, the GI50 [7] was 16.4 µM (inactive), the GI50 [8] was 27.9 µM (inactive) and the GI50 [9] was 17.4 µM (inactive). For the same molecule, the GI50 [10] was 16.7 µM (inactive), the GI50 [11] was 34.1 µM (inactive) and the GI50 [12] was 25.6 µM (inactive). For the same molecule, the GI50 [13] was 16 µM (inactive), the GI50 [14] was 17.2 µM and the GI50 [15] was 15.1 µM (inactive). For the same molecule, the GI50 [16] was 22.9 µM (inactive), the GI50 [17] was 28.6 µM (inactive) and the GI50 [18] was 14.4 µM (inactive). The GI50 [19] was 20 µM (inactive), the GI50 [20] was 19 µM (inactive) and the GI50 [21] was 20.3 µM (inactive). The GI50 [22] was 16.1 µM (inactive), the GI50 [23] was 26.2 µM (inactive) and the GI50 [24] was 20.9 µM (inactive). For the same molecule, the GI50 [25] was 14.4 µM (inactive), the GI50 [26] was 16.6 µM (inactive) and the GI50 [27] was 19.7 µM (inactive). For the same molecule, the GI50 [28] was 12.6 µM (inactive), the GI50 [29] was 22.5 µM (inactive) and the GI50 [30] was 15.2 µM (inactive). For the same molecule, the GI50 [31] was 19.8 µM (inactive), the GI50 [32] was 15.8 µM (inactive) and the GI50 [33] was 14.5 µM (inactive). For the same molecule, the GI50 [34] was 17.6 µM (inactive), the GI50 [35] was 16.4 µM (inactive) and the GI50 [36] was 23.1 µM (inactive). For the same molecule, the GI50 [37] was 37.2 µM (inactive), the GI50 [38] was 16.1 µM (inactive) and the GI50 [39] was 20.1 µM (inactive). The GI50 [40] was 19.8 µM (inactive), the GI50 [41] was 20.3 µM (inactive) and the GI50 [42] was 21.6 µM (inactive). The GI50 [43] was 25.5 µM (inactive), the GI50 [44] was 25.8 µM (inactive) and the GI50 [45] was 16.1 µM (inactive). For the same molecule, the GI50 [46] was 17.5 µM (inactive), the GI50 [47] was 22.9 µM (inactive) and the GI50 [48] was 18.7 µM (inactive). The GI50 [49] was 44.2 µM (inactive), the GI50 [50] was 36.5 µM (inactive) and the GI50 [51] was 29.4 µM (inactive). The GI50 [52] was 12.7 µM (inactive), the GI50 [53] was 31.6 µM (inactive) and the GI50 [54] was 21.7 µM (inactive). The GI50 [55] was 19.3 µM (inactive), the GI50 [56] was 19.9 µM (inactive) and the GI50 [57] was 17.4 µM (inactive). The GI50 [58] was 25.7 µM (inactive) and the GI50 [59] was 26.2 µM (inactive).
